In patent US12583851B2, “Heteroaryl-substituted pyrazine derivatives as pesticides” (Elanco Animal Health GmbH, priority 2019, dated 2026):

Legend:
Assay type in all cases: in vivo
[1] = tested on: adult brown dog ticks (Rhipicephalus sanguineus); assay: Rhipicephalus sanguineus in-vitro contact test, adult brown dog ticks; conditions: 48 h, after 48 hours, read-out: efficacy (ticks dead or moribund); for pest or weed control at 5 µg/cm2, 500 g/ha: 5 μg/cm^2 (=500 g/ha)
Procedure: Rhipicephalus sanguineus—In-Vitro Contact Tests with Adult Brown Dog Ticks
(§1) 9 mg compound is solved in 1 mL acetone and diluted with acetone to the desired concentration. 250 of the test solution is filled in 25 mL glass test tubes and homogeneously distributed on the inner walls by rotation and tilting on a shaking device (2 h at 30 rpm). With a compound concentration of 900 ppm, an inner surface of 44.7 cm^2 and a homogeneous distribution, a dose of 5 μg/cm^2 is achieved.
(§2) After the solvent has evaporated, each test tube is filled with 5-10 adult brown dog ticks (Rhipicephalus sanguineus), closed with a perforated lid and incubated in a lying position at room temperature and relative humidity. After 48 hours efficacy is determined. The ticks are patted on the ground of the tubes and are incubated on a heating plate at 45-50° C. for at most 5 minutes Immotile or uncoordinated moving ticks, which are not able to escape the heat by climbing upwards, are marked as dead or moribund.
An efficacy of 100% means all ticks are dead or moribund; 0% means no ticks are dead or moribund.

[2] = tested on: adult unfed cat fleas (Ctenocephalides felis); assay: Ctenocephalides felis oral test; conditions: 48 h, 100 ppm in citrated cattle blood, after 2 days
Procedure: Ctenocephalides felis—Oral Test
(§3) Solvent: dimethyl sulfoxide
To produce a suitable preparation of active compound, 10 mg of active compound are dissolved in 0.5 mL solvent, and the concentrate is diluted with citrated cattle blood to the desired concentration.
Approximately 20 adult unfed cat fleas (Ctenocephalides felis) are placed in a flea chamber whose top and bottom is covered with gauze. A chamber whose bottom is sealed with parafilm, is filled with the blood-compound solution and placed on top of the flea chamber, so that the fleas can suck the blood. The blood chamber is heated to 37° C. whereas the flea chamber is kept at room temperature.
After 2 days mortality in % is determined. 100% means all the fleas have been killed; 0% means none of the fleas have been killed.

[3] = tested on: adult engorged female ticks (Rhipicephalus microplus); assay: Rhipicephalus (Boophilus) microplus injection test; conditions: 168 h, 4 μg/animal, egg deposition after 7 days, read-out: efficacy (infertile eggs)
Procedure: Rhipicephalus (Boophilus) microplus—Injection Test
as §3
To produce a suitable preparation of active compound, 10 mg of active compound are dissolved in 0.5 mL solvent, and the concentrate is diluted with solvent to the desired concentration.
Five adult engorged female ticks (Rhipicephalus microplus) are injected with 1 μL compound solution into the abdomen. The ticks are transferred into replica plates and incubated in a climate chamber.
After 7 days egg deposition of fertile eggs is monitored. Eggs where fertility is not visible are stored in a climate chamber till hatching after about 42 days. An efficacy of 100% means all eggs are infertile; 0% means all eggs are fertile.

[4] = tested on: adult cat fleas (Ctenocephalides felis); assay: Ctenocephalides felis in-vitro contact test, adult cat flea; conditions: after 48 hours, read-out: efficacy (fleas dead or moribund)
Procedure: Ctenocephalides felis—In-Vitro Contact Tests Adult Cat Flea
as §1, with “1 ml” for “1 mL”, “250 μL” for “250”
as §2, with “cat fleas (Ctenocephalides felis),” for “brown dog ticks (Rhipicephalus sanguineus),”, “fleas” for “ticks”, “fleas,” for “ticks,”
An efficacy of 100% means all fleas are dead or moribund; 0% means no fleas are dead or moribund.

[5] = tested on: Rhipicephalus (Boophilus) microplus larvae (strain Parkhurst, resistant against synthetic pyrethroids); assay: Rhipicephalus (Boophilus) microplus in-vitro contact test, larval cattle tick; conditions: after 48 hours, read-out: efficacy (larvae dead or moribund); for pest or weed control at 1 µg/cm2, 100 g/ha: 1 μg/cm^2 (=100 g/ha); for pest or weed control at 5 µg/cm2, 500 g/ha: 5 μg/cm^2 (=500 g/ha)
In short: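 Acetone solutions were coated onto glass tube walls (900 ppm gives 5 μg/cm²); after drying, 20–50 pyrethroid-resistant Parkhurst larvae added and held at 27 °C, 85% RH. At 48 h, efficacy as % larvae dead or moribund, judged by loss of negative geotaxis.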

[6] = tested on: fall armyworm larvae (Spodoptera frugiperda); assay: Spodoptera frugiperda spray test; conditions: 168 h, maize leaf sections, after 7 days
In short: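 Compound dissolved in acetone/dimethylformamide, diluted in water containing 1000 ppm alkylarylpolyglycol ether emulsifier and sprayed onto maize leaf sections. Dried sections were infested with larvae; % mortality scored after 7 days (100% = all caterpillars killed, 0% = none).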

[7] = tested on: larvae of the southern green stink bug (Nezara viridula); assay: Nezara viridula spray test; conditions: 96 h, 500 g/ha, barley plants, after 4 days
Procedure: Nezara viridula—Spray Test
Solvent: 78.0 parts by weight of acetone • • 1.5 parts by weight of dimethylformamide
Emulsifier: alkylarylpolyglycol ether
To produce a suitable preparation of active compound, 1 part by weight of active compound is mixed with the stated amount of solvent, and the concentrate is diluted with water, containing an emulsifier concentration of 1000 ppm, to the desired concentration. Further test concentrations are prepared by dilution with emulsifier containing water.
Barley plants (Hordeum vulgare) infested with larvae of the southern green stink bug (Nezara viridula) are sprayed with a test solution containing the desired concentration of the active ingredient.
After 4 days mortality in % is determined. 100% means all the stink bugs have been killed; 0% means none of the stink bugs have been killed.

[8] = tested on: larvae of the banded cucumber beetle (Diabrotica balteata); assay: Diabrotica balteata spray test; conditions: 168 h, after 7 days, read-out: efficacy (seedling growth); for pest or weed control at 6.4 µg/disc, 20 g/ha: 20 g/ha (=6.4 μg/well); for pest or weed control at 32 µg/disc, 100 g/ha: 100 g/ha (=32 μg/well)
In short: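 Germinated wheat seedlings (5 per well, on agar) sprayed with compound in acetone/DMF with emulsifier-containing water, then infested with 10–20 Diabrotica balteata larvae. Efficacy (%) scored after 7 days from seedling growth: 100% = growth as untreated uninfested control, 0% = no seedlings grown.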

Structure (SMILES)	pest or weed control at 5 µg/cm2, 500 g/ha [1] [%]	mortality at 100 ppm [2] [%]	pest or weed control at 0.004 mg [3] [%]	pest or weed control at 1 µg/cm2, 100 g/ha ([4]; 1 μg/cm^2 (=100 g/ha)) [%]	pest or weed control at 5 µg/cm2, 500 g/ha ([4]; 5 μg/cm^2 (=500 g/ha)) [%]	pest or weed control at 1 µg/cm2, 100 g/ha [5] [%]	pest or weed control at 5 µg/cm2, 500 g/ha [5] [%]	mortality at 100 g/ha [6] [%]	mortality at 500 g/ha [7] [%]	pest or weed control at 6.4 µg/disc, 20 g/ha [8] [%]	pest or weed control at 32 µg/disc, 100 g/ha [8] [%]	pest or weed control at 1 µg/cm2, 100 g/ha ([1]; 1 μg/cm^2 (=100 g/ha)) [%]
CC(NC(=O)c1cncc(C(F)(F)F)c1)c1nccnc1-c1nccs1 (racemic) [Example I-2, (rac)-N-(1-(3-(Thiazol-2-yl)pyrazin-2-yl)ethyl)-5-(trifluoromethyl)nicotinamide]	100	90	100									
CC(NC(=O)c1cc(C(F)(F)F)cc(C(F)(F)F)c1)c1nccnc1-c1ncc(C(=O)N(C)CC(F)(F)F)s1 (racemic) [Example I-65, (rac)-2-(3-{1-[3,5-Bis(trifluoromethyl)benzamido]ethyl}pyrazin-2-yl)-N-methyl-N-(2,2,2-trifluoroethyl)-1,3-thiazole-5-carboxamide]	80	80	80	100	100	100	100	100				
CC(NC(=O)c1cc(Cl)cc(S(C)(=O)=O)c1)c1nccnc1-n1cc(C(F)(F)F)cn1 (racemic) [Example I-93, (rac)-3-Chloro-5-(methanesulfonyl)-N-[1-{3-[4-(trifluoromethyl)-1H-pyrazol-1-yl]pyrazin-2-yl}ethyl]benzamide]	80					100	100	100	100	100	100	
CC(NC(=O)c1cc(Cl)cc(S(C)(=O)=O)c1)c1nccnc1-n1cc(Cl)cn1 (racemic) [Example I-99, (rac)-3-Chloro-N-{1-[3-(4-chloro-1H-pyrazol-1-yl)pyrazin-2-yl]ethyl}-5-(methanesulfonyl)benzamide]									100			
CC(NC(=O)c1cc(C(F)(F)F)cc(C(F)(F)F)c1)c1nccnc1-n1cc(C(=O)N(C)CC2CC2)cn1 (racemic) [Example I-131, (rac)-1-(3-{1-[3,5-Bis(trifluoromethyl)benzamido]ethyl}pyrazin-2-yl)-N-(cyclopropylmethyl)-N-methyl-1H-pyrazole-4-carboxamide]	80					100	100	100	100	100	100	80
CC(NC(=O)c1cc(C(F)(F)F)cc(C(F)(F)F)c1)c1nccnc1-n1cc(C(=O)N(C)C2CC2)cn1 (racemic) [Example I-139, (rac)-1-(3-{1-[3,5-Bis(trifluoromethyl)benzamido]ethyl}pyrazin-2-yl)-N-cyclopropyl-N-methyl-1H-pyrazole-4-carboxamide]						100	100	100	100		80	
CC(NC(=O)c1cc(Cl)cc(C(F)(F)F)c1)c1nccnc1-c1ccc(Cl)cn1 (stereo not shown) [Example I-24]		100	100			90	90	100		100	100	
CCN(C)C(=O)c1cnc(-c2ncc(C)nc2[C@H](C)NC(=O)c2cc(C(F)(F)F)cc(C(F)(F)F)c2)s1 [Example I-155, (+)-2-(3-{(1S)-1-[3,5-Bis(trifluoromethyl)benzamido]ethyl}-5-methylpyrazin-2-yl)-N-ethyl-N-methyl-1,3-thiazole-5-carboxamide]								100	100	100	100	
